Format in all cases: in vivo
In assay [1] the test system is southern armyworm (Spodoptera eridania). In words: Southern Armyworm Leaf Spray Bait Test. The note with it: 120 h, read-out: Percent Control after 5 days. How it is done: Suspensions of the test compounds were prepared by dissolving one gram of compound in 50 milliliters of acetone in which had been dissolved 0.1 gram (10 percent of the weight of compound) of an alkylphenoxy polyethoxyethanol surfactant, as an emulsifying or dispersing agent. The resulting solution was mixed into 150 milliliters of water to give roughly 200 milliliters of a suspension containing the compound in finely divided form. The thus-prepared stock suspension contained 0.5 percent by weight of compound.
Certain of the test compounds were also prepared by dissolving 375 mg of compound in 7.5 ml of dimethylformamide. Fifteen ml of acetone containing 37.5 mg (10 percent of the weight of test compound) of an alkylphenoxy polyethoxyethanol surfactant, as a wetting/emulsifying/dispersing agent was added to the dimethylformamide solution. Fifty-two and a half ml of water was mixed into the dimethylformamide-acetone mixture to give roughly 75 ml of a suspension containing the compound in solution or in finely divided form. The thus prepared stock suspension contained 0.5 percent by weight of compound. The test concentrations in parts per million by weight employed in the tests described hereinbelow were obtained by appropriate dilutions of the stock suspension with water. The test procedures were as follows:
Larvae of the southern armyworm (Spodoptera eridania, (Cram.), reared on Tendergreen bean plants at a temperature of 80°±5° F. and a relative humidity of 50±5 percent, constituted the test insects.
The test compounds were formulated by diluting the stock suspension with water to give a suspension containing 500 parts of test compound per million parts of final formulation. Potted Tendergreen bean plants of standard height and age were placed on a revolving turntable and sprayed with 100-110 milliliters of test compound formulation by use of a DeVilbiss spray gun set at 40 psig air pressure. This application, which lasted 25 seconds, was sufficient to wet plants to run-off. As a control, 100-110 milliliters of a water-acetone-emulsifier solution containing no test compound were also sprayed on infested plants. When dry, the paired leaves were separated and each one was placed in a 9 centimeter Petri dish lined with moistened filter paper. Five randomly selected larvae were introduced into each dish and the dishes were closed. The closed dishes were labeled and held at 80°-85° F. for five days. Although the larvae could easily consume the whole leaf within twenty-four hours, no more food was added. Larvae which were unable to move the length of the body, even upon stimulation by prodding, were considered dead. Percent mortality was recorded for various concentration levels.

For a further assay, the system named is H. Virecens. Put plainly: Comparison against Heliothis spp: H. Virecens. The note with it: read-out: LD50, H. Virecens.
For a further assay, the system named is H. Zea. Put plainly: Comparison against Heliothis spp: H. Zea.
Setting [2] is: Helicoverpa zea; read-out: LD50, H. Zea.

SMILES strings stand for the structures. ≈ marks a conversion by molar mass, not a printed value. Read-outs that look alike come from different tables or passages of the source.

The values below come from patent US4602109A, “Novel pesticidal phenoxyphenyl and phenoxypyridyl benzoyl ureas and process for preparation” (Union Carbide Corporation, priority 1984, dated 1986).

On to `O=C(NC(=O)c1c(F)cccc1F)Nc1ccc(Cl)cc1` [1-(4-chlorophenyl)-3-(2,6-difluorobenzoyl)urea, reference compound], for which, in assay [1], the mortality at 5 ppm is 40% and the mortality at 10 ppm stood at 100%. Further, the LC50 with H. Virecens was determined as 31 µg/mL (≈ 99.8 µM). Besides, in the assay on H. Zea (Helicoverpa zea, read-out: LD50, H. Zea), the LC50 worked out at 500 µg/mL (≈ 1610 µM).
On to `O=C(NC(=O)c1c(F)cccc1F)Nc1cc(Cl)c(Oc2ccc(S(=O)(=O)c3ccc(Cl)cc3)cc2)c(Cl)c1` [Example 2, 1-(2,6-Difluorobenzoyl)-3-(3,5-dichloro-4-[4-(4-chlorophenylsulfonyl)phenoxy]phenyl)urea], for which, in assay [1], the mortality at 3 ppm is 100%, the mortality at 6 ppm stood at 90% and the mortality at 12 ppm came out at 100%. The LC50 in the assay with H. Virecens came to 8.5 µg/mL (≈ 13.9 µM). In addition, in the assay on H. Zea (setting [2]), the LC50 was 12.5 µg/mL (≈ 20.4 µM).
In the case of `O=C(NC(=O)c1c(F)cccc1F)Nc1ccc(Oc2ccc(S(=O)(=O)c3ccc(Cl)cc3)cc2)c(Cl)c1` [Example 3, 1-(2,6-difluorobenzoyl)-3-(3-chloro-4-[4-((4-chloro-phenylsulfonyl))-phenoxy]phenyl)urea], in assay [1], the mortality at 3 ppm amounted to 56%, the mortality at 6 ppm came to 75% and the mortality at 12 ppm turned out to be 100%. In addition, the LC50 in the assay with H. Virecens was determined as 31 µg/mL (≈ 53.7 µM). The LC50 in the assay with H. Zea (setting [2]) was determined as 31 µg/mL (≈ 53.7 µM).
Turning to `O=C(NC(=O)c1c(F)cccc1Cl)Nc1ccc(Oc2ccc(S(=O)(=O)c3ccc(Cl)cc3)cc2)cc1` [Example 9, 1-(2-chloro-6-fluorobenzoyl)-3-(4-[4-(4-chloro-phenylsulfonyl)phenoxy]-phenyl)urea], in assay [1], the mortality at 1.5 ppm came out at 60%, the mortality at 6 ppm is 100% and the mortality at 20 ppm is 100%.
